Assays:
[1] = tested on: EGFR; assay: Biotinylated EAI045 pull-down assay; type: binding; settings: following osimertinib treatment
[2] = tested on: EGFR-mutant models; settings: without cetuximab; cited from earlier work
[3] = target: L858R/T790M EGFR (Homo sapiens, UniProt P00533, L858R/T790M); assay: HTRF-based EGFR biochemical assay; settings: read-out: IC50 (biochemical potency); enzyme 20pM, 100µM ATP
[4] = tested on: EGFR L858R/T790M/C797S genetically engineered mice; assay: Pharmacodynamic study in GEM mice; type: in vivo; settings: oral gavage once daily, 3 doses
[5] = tested on: EGFR L858R/T790M/C797S genetically engineered mice; assay: Efficacy study in GEM mice; type: in vivo
[6] = tested on: H3255GR cells; assay: IncuCyte Caspase-3/7 apoptosis assay; type: cell-based, human; settings: 0.1μM osimertinib, 10μM allosteric inhibitor, or both; 72 hours
[7] = tested on: H3255GR cells; assay: IncuCyte long-term confluency assay; type: cell-based, human; settings: osimertinib 1μM, JBJ-04-125-02 10μM or both, 2 weeks of treatment
[8] = tested on: Ba/F3 cell lines stably transfected with EGFR L858R, L858R/T790M or L858R/T790M/C797S; assay: Ba/F3 cell proliferation; type: cell-based, murine; settings: single agent, 72 hours
[9] = target: TIE1 (Homo sapiens, UniProt P35590); assay: KINOMEscan kinome selectivity profiling; type: binding; settings: 10µM
[10] = tested on: parental Ba/F3 cells; assay: Ba/F3 cell proliferation; type: cell-based, murine; settings: 72 hours
[11] = tested on: L858R/T790M Ba/F3 cells; assay: ENU mutagenesis resistant colony assay; settings: after ENU; 1μM osimertinib, 10μM JBJ-04-125-02, or combination; of 300 colonies
[12] = target: TIE2 (Homo sapiens, UniProt Q02763); assay: KINOMEscan kinome selectivity profiling; type: binding; settings: 10µM
[13] = tested on: H1975 cells; assay: Western blotting of EGFR, AKT, ERK1/2 phosphorylation; settings: 4 hours, compared to osimertinib
[14] = tested on: Del_19-containing EGFR mutants; assay: KINOMEscan kinome selectivity profiling; type: binding, human; settings: 10µM
[15] = tested on: wild-type EGFR Ba/F3 cells; assay: Ba/F3 cell proliferation; type: cell-based, murine; settings: 72 hours
[16] = tested on: Ba/F3 cells harboring EGFR Del_19 variants; assay: Ba/F3 cell proliferation; type: cell-based, murine; settings: 72 hours
[17] = tested on: Ba/F3 cells containing the L858R/C797S mutation; assay: Ba/F3 cell proliferation; type: cell-based, murine; settings: compared to gefitinib
[18] = tested on: H1975 xenograft mouse model; settings: for tumor volume change at day 18: osimertinib 2.5mg/kg, JBJ-04-125-02 100mg/kg, or both
[19] = tested on: H1975 cells; assay: Cell viability assay; settings: 72 hours
[20] = tested on: H1975 xenograft mouse model; assay: Pharmacodynamic study in H1975 xenograft; settings: 3 doses; JBJ-04-125-02 100mg/kg, osimertinib 25mg/kg
[21] = tested on: panel of 468 kinases; assay: KINOMEscan kinome selectivity profiling; type: binding, human; settings: 10µM, 35% cut-off
[22] = Pharmacokinetic study; type: in vivo
[23] = target: MAP4K5 (Homo sapiens, UniProt Q9Y4K4); assay: KINOMEscan kinome selectivity profiling; type: binding; settings: 10µM
[24] = tested on: H3255GR cells; assay: Cell viability assay; settings: 72 hours
[25] = tested on: EGFR-mutant NSCLC patients; settings: cited from earlier work; for PFS: osimertinib vs comparator arm gefitinib or erlotinib; for median PFS: patients with an L858R mutation, comparator arm gefitinib or erlotinib
[26] = tested on: patients with advanced EGFR mutant NSCLC; settings: initial therapy; cited from earlier work
[27] = tested on: patients with EGFR T790M-mediated drug resistance; settings: cited from earlier work

For `O=C(Nc1nccs1)C(c1cc(F)ccc1O)N1Cc2ccccc2C1=O` (stereo not drawn) [EAI045], the co-binding with osimertinib [1] is listed as “did indeed co-bind with osimertinib and increase EGFR precipitation” and the single agent efficacy [2] is listed as “not effective as a single agent”.
For `O=C(Nc1nccs1)C(c1ccccc1)N1Cc2ccc(-c3ccc4[nH]ccc4c3)cc2C1=O` (stereo not drawn) [JBJ-02-112-05], the IC50 [3] was 15 nM, the “phosphorylation of EGFR and downstream signaling in tumors” value ([4]; 100mg/kg) was “also inhibited phosphorylation of EGFR and downstream signaling pathways although not as robustly as JBJ-04-125-02” and the “change in tumor volume” value ([5]; 100mg/kg) was “ineffective”.
In the case of `O=C(Nc1nccs1)C(c1cc(F)ccc1O)N1Cc2ccc(-c3ccc(N4CCNCC4)cc3)cc2C1=O` (stereo not drawn) [JBJ-04-125-02], the “apoptosis (Caspase-3/7 activity)” value [6] is reported as “no more effective than DMSO”, the “confluency at 2 weeks” value [7] is reported as “reached full confluency” and the “inhibition of cell proliferation” value [8] is reported as “could inhibit cell proliferation as a single agent”. The “% control” value [9] was 29 % control, the inhibition of growth [10] was “did not inhibit the growth” and the resistant colonies [11] was 72%. For the same molecule, the “% control” value [12] was 33 % control, the “EGFR and ERK1/2 phosphorylation” value [13] was “downregulate EGFR and ERK1/2 phosphorylation more potently than osimertinib” and the “phosphorylation of EGFR, AKT and ERK1/2 in tumors” value ([4]; 50mg/kg and 100mg/kg) was “effectively inhibited phosphorylation of EGFR, AKT and ERK1/2”. For the same molecule, the binding affinity [14] was “lacks binding affinity”, the inhibition of growth [15] was “did not inhibit the growth” and the “sensitivity of cell proliferation” value [16] was “resistant”. For the same molecule, the “inhibition of cell proliferation” value [17] was “not as potent as gefitinib in inhibiting cell proliferation”, the “tumor volume change at day 18” value [18] was “minimal reduction in tumor volume” and the tumor growth ([18]; osimertinib 25mg/kg, JBJ-04-125-02 100mg/kg, 35 days) was “tumor stasis and occasional shrinkage in some mice”. For the same molecule, the “concentration inhibiting cell proliferation” value [19] was “low nanomolar concentrations”, the “EGFR, AKT and ERK1/2 phosphorylation in tumors” value [20] was “reduction in EGFR phosphorylation but only subtle changes in AKT and ERK1/2 phosphorylation” and the “S-Score (35)” value [21] was 0.02. The “area under the curve (AUClast)” value ([22]; 3 mg/kg intravenous (IV) dose) was 728577 ng·min/mL, the half-life ([22]; 3 mg/kg intravenous (IV) dose) was 3 h and the “average maximal plasma concentration” value ([22]; 20mg/kg oral dose) was 1.1 µM. The oral bioavailability ([22]; 20mg/kg oral dose) was 3%, the “% control” value [23] was 9.5 % control and the “sensitivity of cell proliferation” value [24] was “resistant”. The “weight loss or signs of toxicity” value ([5]; 50mg/kg long-term treatment) was “not associated with weight loss or overt signs of toxicity” and the “change in tumor volume” value ([5]; 50mg/kg, within 4 weeks, sustained for 15 weeks) was “marked tumor regressions”.
In the case of `C#Cc1cccc(Nc2ncnc3cc(OCCOC)c(OCCOC)cc23)c1` [erlotinib], the PFS [25] is listed as 10.2 months and the “median PFS” value [25] is listed as 9.5 months.
In the case of `C=CC(=O)Nc1cc(Nc2nccc(-c3cn(C)c4ccccc34)n2)c(OC)cc1N(C)CCN(C)C` [osimertinib, reference compound], the “apoptosis (Caspase-3/7 activity)” value [6] is listed as “time-dependent increase in apoptosis”, the “confluency at 2 weeks” value [7] is listed as 24% and the PFS [26] is listed as 19.3 months. The RR [26] was 77%, the “progression free survivals (PFS)” value [27] was 9.9–12.3 months and the “response rate (RR)” value [27] was 62–71%. The PFS [25] was 18.9 months, the “median PFS” value [25] was 14.4 months and the “tumor volume change at day 18” value [18] was “minimal reduction in tumor volume”. For the same molecule, the tumor regression ([18]; osimertinib 25mg/kg alone or with JBJ-04-125-02 100mg/kg, 28 days) was roughly 100%, the “EGFR, AKT and ERK1/2 phosphorylation in tumors” value [20] was “complete inhibition of EGFR phosphorylation” and the “sensitivity of cell proliferation” value [24] was “sensitive”.
